Source: ChEMBL document CHEMBL3217509, “Discovery of an HIV integrase inhibitor with an excellent resistance profile” (Medchemcomm, 2013)
pIC50: −log10 of the molar value.

Columns and labels:
[1] = Intrinsic clearance in human liver microsomes assessed per mg of protein by LC-MS/MS analysis; format: ADME; conditions: read-out: CLH
[2] = system: Human immunodeficiency virus 1; experiment: Antiviral activity against HIV1 NL4-3 infected in human MT2 cells after 3 days by human JC53BL cell-based beta-galactosidase reporter gene assay; format: functional, organism-based; conditions: Human immunodeficiency virus 1, NL4-3, JC53BL, 72 h
[3] = Intrinsic clearance in human hepatocytes assessed assessed per million of cells by LC-MS/MS analysis; format: ADME, cell-based, Hepatocyte; conditions: read-out: CLH
[4] = Intrinsic clearance in human liver microsomes assessed per mg of protein by LC-MS/MS analysis in presence of UDPGA; format: ADME; conditions: read-out: CLH
[5] = Aqueous solubility of the compound at pH 7.4; format: physicochemical; conditions: buffer
[6] = Inhibition of DNA polymerase beta (unknown origin); set-up: species or system Homo sapiens
[7] = Inhibition of DNA polymerase alpha (unknown origin); set-up: species or system Homo sapiens

In the case of `O=C(NCCO)c1c(O)c2ncc3c(ccn3Cc3ccc(F)cc3)c2[nH]c1=O`, the microsomal CLint [1] was 17.3 µL/min/mg, the pIC50 [2] was 9.00 and the hepatocyte CLint [3] was 2.9 µL/min/1e6 cells. For the same compound, the microsomal CLint [4] was < 3.5 µL/min/mg and the solubility [5] was < 1 µg/mL.
With `COc1cc(Cn2ccc3c4c(ncc32)C(=O)N(O)CC4)ccc1F` the microsomal CLint [1] was 12.5 µL/min/mg, the pIC50 [2] was 7.72 and the hepatocyte CLint [3] was 34.3 µL/min/1e6 cells. The microsomal CLint [4] was 18 µL/min/mg.
`Cc1nc2c(ncc3c2ccn3Cc2ccc(F)cc2)c(=O)n1O` showed a microsomal CLint [1] of 21.3 µL/min/mg, a pIC50 [2] of 6.35 and a hepatocyte CLint [3] of 14.1 µL/min/1e6 cells. The microsomal CLint [4] was 80.2 µL/min/mg.
With `C[C@@]1(CO)[C@H](O)CC[C@@]2(C)[C@H]1CC[C@H]1C[C@@H]3C[C@@]12CC[C@]3(O)CO` [APHIDICOLIN] the pIC50 [6] was 5.71 and the pIC50 [7] was 5.14.
